Laboratory results as given in ChEMBL document CHEMBL1124350, “Retinobenzoic acids. 4. Conformation of aromatic amides with retinoidal activity. Importance of trans-amide structure for the activity” (1989).

Experiments:
HL-60 [1] = assay: Compound was tested for differentiation-inducing activity against human promyelocytic leukemia cell line HL-60; type: functional; conditions: read-out: ED50 (the source's name)
HL-60 [2] = assay: Relative activity expressed as mean of ratio of effective dose of retinoic acid against HL-60 cell versus the compound; type: functional, Homo sapiens

| SMILES | EC50 (HL-60 [1]) [nM] | Relative activity (HL-60 [2]) |
| --- | --- | --- |
| CC1(C)CCC(C)(C)c2cc3c(cc21)CN(c1ccc(C(=O)O)cc1)C3=O | 510 | 0.33 |
| CC1(C)CCC(C)(C)c2cc3c(ccn3C(=O)c3ccc(C(=O)O)cc3)cc21 | 65 | 2.6 |
| CC1(C)CCC(C)(C)c2cc3c(cc21)CCN3C(=O)c1ccc(C(=O)O)cc1 | 150 | 1.1 |
| CN(C(=O)c1ccc(C(=O)O)cc1)c1ccc2c(c1)C(C)(C)CCC2(C)C | > 1000 | <0.01 |
| CC1(C)CCC(C)(C)c2cc(C(=O)Nc3ccc(C(=O)O)cc3)ccc21 | 0.34 | 720 |
| CN(C(=O)c1ccc2c(c1)C(C)(C)CCC2(C)C)c1ccc(C(=O)O)cc1 | > 1000 | < 0.01 |
| CC1(C)CCC(C)(C)c2cc(NC(=O)c3ccc(C(=O)O)cc3)ccc21 [TAMIBAROTENE] | 0.79 | 350 |
| CC1=C(/C=C/C(C)=C/C=C/C(C)=C/C(=O)O)C(C)(C)CCC1 [TRETINOIN] | 2.4 | 100 |
